Where two headings read alike, the source gives them in different places.
How the values were obtained:
[1] = In vivo pharmacokinetics, plasma LC-MS/MS
Protocol: Pharmacokinetic and cytochrome P450 inhibition studies. Studies were performed with the assistance of Touchstone Biosciences (Plymouth Meeting, Pennsylvania). For pharmacokinetic bioanalysis, male CD-1 mice were fasted overnight before being dosed with M1i-124 via oral gavage (20mg/kg), intraperitoneal injection in the lower right quadrant of the abdomen (20 mg/kg), or intravenous tail vein injection (5 mg/kg). All blood samples were taken via tail vein at 5, 15, and 30 minutes, and 1, 2, 4, 6, 8, and 24 hours after compound administration. The plasma concentration of the compound was determined using LC-MS/MS analysis. […]

COX1/2 = experiment: SAFETYscan78 off-target screen; settings: off-target panel; read-out: EC50 or IC50, COX1/2
Description: (§1) We also tested for possible adverse actions of M1i-124 on cytochrome P450 (CYP) enzymes that might limit its use in vivo. The CYP family of enzymes are responsible for phase I metabolism of many drugs and endogenous substances, and their inhibition can lead to unanticipated toxicities. […] To further test for potential off-target effects of M1i-124, we conducted an in vitro safety pharmacology profiling screen that measures the ability of a candidate compound to inhibit 78 key GPCRs, ion channels, nuclear hormone receptors, neurotransmitter transporters, kinases, and non-kinase enzymes. […]
(§2) cological profile for M1i-124. EC50 or I C50 f or act i vi t y agai nst sel ect GPCRs, i on channel s, nucl ear hor mone r eceptor s, ki nases, and neur otr ansmi tter tr anspor ter s i n an off-target activity screen of M1i-124 (Eurofins SAFETYscan78). When unmeasurable, the EC50 or IC50 for an indicated target is listed as >10 […]
(§3) (1 picture or pasted object on this page, not shown here)

INSR = target: T1, INSR (Homo sapiens, UniProt P06213); experiment: SAFETYscan78 off-target screen; settings: off-target panel; read-out: EC50 or IC50, INSR
T1 construct: Eurofins SAFETYscan78
Description: as §1, §2, §3

LCK = target: T2, LCK (Homo sapiens, UniProt P06239); experiment: SAFETYscan78 off-target screen; settings: off-target panel; read-out: EC50 or IC50, LCK
T2 construct: Eurofins SAFETYscan78
Description: as §1, §2, §3

PDE4 = target: T3, PDE4 (Homo sapiens, UniProt Q08499); experiment: SAFETYscan78 off-target screen; settings: off-target panel; read-out: EC50 or IC50, PDE4
T3 construct: Eurofins SAFETYscan78
Description: as §1, §2, §3

ROCK1 = target: T4, ROCK1 (Homo sapiens, UniProt Q13464); experiment: SAFETYscan78 off-target screen; settings: off-target panel; read-out: EC50 or IC50, ROCK1
T4 construct: Eurofins SAFETYscan78
Description: as §1, §2, §3

VEGFR2 = target: T5, VEGFR2 (Homo sapiens, UniProt P35968); experiment: SAFETYscan78 off-target screen; settings: off-target panel; read-out: EC50 or IC50, VEGFR2
T5 construct: Eurofins SAFETYscan78
Description: as §1, §2, §3

hERG = target: T6, hERG (Homo sapiens, UniProt Q12809); experiment: SAFETYscan78 off-target screen; settings: off-target panel; read-out: EC50 or IC50, hERG
T6 construct: Eurofins SAFETYscan78
Description: as §1, §2, §3

[2] = male, CD-1, mouse, plasma, ip, 20 mg/kg, IP, read-out: Plasma concentration (IP)
[3] = male, CD-1, mouse, plasma, iv, 5 mg/kg, IV, read-out: Plasma concentration (IV)
[4] = male, CD-1, mouse, plasma, po, 20 mg/kg, PO, read-out: Plasma concentration (PO)

T5 sequence (P35968 20-1356): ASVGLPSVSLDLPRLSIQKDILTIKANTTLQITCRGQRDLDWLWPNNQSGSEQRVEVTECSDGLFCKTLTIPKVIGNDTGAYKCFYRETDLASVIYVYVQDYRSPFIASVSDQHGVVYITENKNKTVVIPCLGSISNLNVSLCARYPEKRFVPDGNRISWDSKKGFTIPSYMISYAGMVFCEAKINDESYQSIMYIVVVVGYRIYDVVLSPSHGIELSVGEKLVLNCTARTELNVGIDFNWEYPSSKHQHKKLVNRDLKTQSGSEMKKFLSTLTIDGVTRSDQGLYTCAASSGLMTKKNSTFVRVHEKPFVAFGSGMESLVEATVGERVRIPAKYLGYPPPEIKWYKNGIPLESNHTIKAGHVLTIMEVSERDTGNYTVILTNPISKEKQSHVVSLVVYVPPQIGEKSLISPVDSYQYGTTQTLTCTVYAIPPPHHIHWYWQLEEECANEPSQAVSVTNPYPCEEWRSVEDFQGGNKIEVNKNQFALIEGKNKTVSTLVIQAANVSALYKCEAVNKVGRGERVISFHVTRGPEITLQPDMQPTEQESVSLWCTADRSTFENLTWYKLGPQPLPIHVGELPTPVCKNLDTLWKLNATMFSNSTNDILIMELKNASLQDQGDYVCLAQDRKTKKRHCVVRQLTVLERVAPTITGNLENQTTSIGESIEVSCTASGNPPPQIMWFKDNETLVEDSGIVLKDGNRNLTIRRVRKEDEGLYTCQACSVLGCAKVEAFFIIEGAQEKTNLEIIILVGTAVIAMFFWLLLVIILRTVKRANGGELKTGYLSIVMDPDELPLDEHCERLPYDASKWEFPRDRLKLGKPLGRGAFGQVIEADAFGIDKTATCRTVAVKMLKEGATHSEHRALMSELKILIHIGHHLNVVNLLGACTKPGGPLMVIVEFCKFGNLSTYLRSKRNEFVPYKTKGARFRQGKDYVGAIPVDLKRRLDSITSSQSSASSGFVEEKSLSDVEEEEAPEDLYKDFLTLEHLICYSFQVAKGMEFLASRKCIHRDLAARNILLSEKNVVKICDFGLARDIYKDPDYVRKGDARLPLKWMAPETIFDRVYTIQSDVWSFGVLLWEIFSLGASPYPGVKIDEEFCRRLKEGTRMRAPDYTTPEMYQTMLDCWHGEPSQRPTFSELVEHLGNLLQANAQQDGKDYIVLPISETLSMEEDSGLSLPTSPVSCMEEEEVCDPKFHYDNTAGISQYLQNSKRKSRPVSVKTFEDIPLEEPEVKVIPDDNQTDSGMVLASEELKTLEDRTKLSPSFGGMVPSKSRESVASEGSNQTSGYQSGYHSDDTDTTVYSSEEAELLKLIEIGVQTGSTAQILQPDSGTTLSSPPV
T2 sequence (P06239 whole entry): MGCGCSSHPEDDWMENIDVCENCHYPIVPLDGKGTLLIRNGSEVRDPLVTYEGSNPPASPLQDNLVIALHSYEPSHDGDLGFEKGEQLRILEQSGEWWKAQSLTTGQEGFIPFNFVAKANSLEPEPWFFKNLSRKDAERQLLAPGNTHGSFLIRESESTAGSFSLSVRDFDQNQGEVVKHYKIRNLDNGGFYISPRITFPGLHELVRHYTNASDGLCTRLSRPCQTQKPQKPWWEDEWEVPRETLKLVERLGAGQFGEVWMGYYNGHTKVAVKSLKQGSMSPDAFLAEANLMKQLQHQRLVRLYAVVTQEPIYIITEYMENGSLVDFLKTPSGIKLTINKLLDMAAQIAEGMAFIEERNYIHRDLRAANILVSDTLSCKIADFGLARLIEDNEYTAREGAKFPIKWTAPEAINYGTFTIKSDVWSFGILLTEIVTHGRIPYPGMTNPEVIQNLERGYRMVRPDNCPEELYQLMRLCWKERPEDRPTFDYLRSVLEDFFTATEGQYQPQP
T3 sequence (Q08499 303-809 limits assumed): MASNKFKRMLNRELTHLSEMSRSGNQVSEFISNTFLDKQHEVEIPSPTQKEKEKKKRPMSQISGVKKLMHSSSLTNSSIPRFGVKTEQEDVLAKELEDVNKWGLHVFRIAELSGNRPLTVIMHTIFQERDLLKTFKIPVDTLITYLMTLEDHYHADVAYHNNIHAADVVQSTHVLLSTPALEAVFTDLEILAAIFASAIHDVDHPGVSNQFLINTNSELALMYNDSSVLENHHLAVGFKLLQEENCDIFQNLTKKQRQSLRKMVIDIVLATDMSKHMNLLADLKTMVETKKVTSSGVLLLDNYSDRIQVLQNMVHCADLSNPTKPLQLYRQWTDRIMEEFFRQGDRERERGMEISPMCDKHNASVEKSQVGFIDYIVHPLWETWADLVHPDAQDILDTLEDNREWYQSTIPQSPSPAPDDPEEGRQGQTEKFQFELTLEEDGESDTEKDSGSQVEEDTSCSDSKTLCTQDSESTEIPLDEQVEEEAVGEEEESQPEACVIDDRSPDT
T6 sequence (Q12809 whole entry): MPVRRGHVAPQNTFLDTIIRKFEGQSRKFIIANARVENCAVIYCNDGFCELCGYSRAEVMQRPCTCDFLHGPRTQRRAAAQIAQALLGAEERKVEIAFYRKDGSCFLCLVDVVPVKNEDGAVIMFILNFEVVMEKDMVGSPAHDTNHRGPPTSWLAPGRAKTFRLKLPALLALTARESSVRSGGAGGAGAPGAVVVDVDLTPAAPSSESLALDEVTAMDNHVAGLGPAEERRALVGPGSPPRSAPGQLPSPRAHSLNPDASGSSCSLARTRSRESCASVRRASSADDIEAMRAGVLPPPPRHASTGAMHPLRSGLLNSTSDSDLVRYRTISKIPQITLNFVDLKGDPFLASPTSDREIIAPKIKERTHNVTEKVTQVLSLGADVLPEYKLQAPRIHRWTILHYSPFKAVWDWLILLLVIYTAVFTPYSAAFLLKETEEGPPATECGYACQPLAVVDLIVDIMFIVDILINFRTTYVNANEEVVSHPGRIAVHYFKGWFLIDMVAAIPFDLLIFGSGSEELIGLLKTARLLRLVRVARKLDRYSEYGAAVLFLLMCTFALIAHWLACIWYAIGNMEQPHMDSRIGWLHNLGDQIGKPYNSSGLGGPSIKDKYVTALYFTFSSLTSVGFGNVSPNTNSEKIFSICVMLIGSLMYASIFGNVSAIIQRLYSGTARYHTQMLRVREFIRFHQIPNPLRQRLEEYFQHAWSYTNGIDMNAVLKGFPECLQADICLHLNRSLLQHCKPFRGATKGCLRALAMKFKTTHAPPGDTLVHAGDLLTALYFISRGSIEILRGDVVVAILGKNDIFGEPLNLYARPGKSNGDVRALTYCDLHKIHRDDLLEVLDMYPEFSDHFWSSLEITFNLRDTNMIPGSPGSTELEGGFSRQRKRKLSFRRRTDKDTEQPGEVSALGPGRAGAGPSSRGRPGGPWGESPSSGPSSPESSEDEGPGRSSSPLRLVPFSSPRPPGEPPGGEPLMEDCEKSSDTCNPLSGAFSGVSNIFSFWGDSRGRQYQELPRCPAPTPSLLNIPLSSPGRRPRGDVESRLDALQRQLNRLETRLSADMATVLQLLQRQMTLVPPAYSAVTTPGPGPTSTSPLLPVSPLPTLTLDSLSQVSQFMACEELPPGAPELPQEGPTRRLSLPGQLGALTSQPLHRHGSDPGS
T4 sequence (Q13464 whole entry): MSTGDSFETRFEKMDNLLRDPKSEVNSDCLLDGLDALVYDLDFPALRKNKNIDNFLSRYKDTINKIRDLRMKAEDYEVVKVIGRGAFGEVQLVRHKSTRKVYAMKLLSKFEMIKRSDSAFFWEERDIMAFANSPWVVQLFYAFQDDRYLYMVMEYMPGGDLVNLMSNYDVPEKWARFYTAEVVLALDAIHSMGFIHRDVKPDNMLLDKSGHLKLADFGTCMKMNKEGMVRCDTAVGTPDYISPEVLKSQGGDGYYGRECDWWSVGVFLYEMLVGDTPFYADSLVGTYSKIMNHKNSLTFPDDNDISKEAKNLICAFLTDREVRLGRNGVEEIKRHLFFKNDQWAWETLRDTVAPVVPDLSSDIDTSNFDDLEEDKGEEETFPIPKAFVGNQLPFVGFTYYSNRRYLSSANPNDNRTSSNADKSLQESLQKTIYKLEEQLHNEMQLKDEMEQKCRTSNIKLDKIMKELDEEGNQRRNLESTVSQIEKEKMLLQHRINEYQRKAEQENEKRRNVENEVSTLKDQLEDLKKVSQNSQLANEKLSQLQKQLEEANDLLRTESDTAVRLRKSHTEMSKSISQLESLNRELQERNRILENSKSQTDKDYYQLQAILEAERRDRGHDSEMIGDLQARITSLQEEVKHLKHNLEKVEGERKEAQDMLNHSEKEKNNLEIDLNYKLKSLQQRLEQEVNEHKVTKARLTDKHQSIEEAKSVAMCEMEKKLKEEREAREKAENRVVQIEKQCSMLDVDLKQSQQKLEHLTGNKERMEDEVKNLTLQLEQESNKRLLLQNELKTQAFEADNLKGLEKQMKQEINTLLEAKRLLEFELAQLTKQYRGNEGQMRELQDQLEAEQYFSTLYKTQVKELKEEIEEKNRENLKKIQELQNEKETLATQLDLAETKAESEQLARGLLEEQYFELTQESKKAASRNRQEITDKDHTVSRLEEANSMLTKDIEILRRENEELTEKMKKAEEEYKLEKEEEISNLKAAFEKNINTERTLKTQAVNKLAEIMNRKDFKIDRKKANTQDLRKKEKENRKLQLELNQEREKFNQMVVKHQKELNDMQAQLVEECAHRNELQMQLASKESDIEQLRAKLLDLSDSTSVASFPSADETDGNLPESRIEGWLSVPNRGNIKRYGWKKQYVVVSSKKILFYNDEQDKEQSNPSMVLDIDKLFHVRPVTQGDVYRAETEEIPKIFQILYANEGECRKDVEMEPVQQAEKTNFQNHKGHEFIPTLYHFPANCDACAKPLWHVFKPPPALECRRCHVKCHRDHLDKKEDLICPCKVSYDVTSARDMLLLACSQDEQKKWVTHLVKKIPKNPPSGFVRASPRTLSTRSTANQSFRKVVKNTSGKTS

`O=S(=O)(NCc1ccc2c(c1)OCO2)c1ccc(Cc2ccc(S(=O)(=O)NCc3ccc4c(c3)OCO4)cc2)cc1` [M1i-124] gave a concentration at 0.25 h [1, 2] of 509 ng/mL, a concentration at 0.5 h [1, 2] of 596 ng/mL and a concentration at 1 h [1, 2] of 349 ng/mL. The concentration at 2 h [1, 2] was 259 ng/mL, the concentration at 4 h [1, 2] was 126 ng/mL and the concentration at 6 h [1, 2] was 75.3 ng/mL. It also gave a concentration at 8 h [1, 2] of 53.2 ng/mL, a concentration at 24 h ([1]; male, CD-1, mouse, plasma, ip, 20 mg/kg, IP, 24 hours, read-out: Plasma concentration (IP)) of 9.14 ng/mL and a Cmax ([1]; male, CD-1, mouse, plasma, ip, mice, 20 mg/kg i.p., read-out: mean peak plasma concentration (Cmax)) of 681 ng/mL. For the same molecule, the half-life ([1]; male, CD-1, mouse, plasma, ip, mice, 20 mg/kg i.p., read-out: t1/2 (converted)) was 6.33 h, the concentration at 0.083 h [1, 3] was 2070 ng/mL and the concentration at 0.25 h [1, 3] was 1200 ng/mL. For the same molecule, the concentration at 0.5 h [1, 3] was 361 ng/mL, the concentration at 1 h [1, 3] was 122 ng/mL and the concentration at 2 h [1, 3] was 24.3 ng/mL. It also gave a concentration at 4 h [1, 3] of 13.4 ng/mL, a concentration at 6 h [1, 3] of 11.6 ng/mL and a concentration at 8 h [1, 3] of 8.84 ng/mL. For the same molecule, the concentration at 24 h ([1]; male, CD-1, mouse, plasma, iv, 5 mg/kg, IV, 24 hours, read-out: Plasma concentration (IV)) was 2.62 ng/mL, the C0 ([1]; male, CD-1, mouse, plasma, iv, mice, 5 mg/kg i.v., read-out: mean initial plasma concentration) was 1860 ng/mL and the Vd ([1]; male, CD-1, mouse, plasma, iv, mice, 5 mg/kg i.v., read-out: steady-state volume of distribution (Vss)) was 15.4 L/kg. For the same molecule, the clearance ([1]; male, CD-1, mouse, plasma, iv, mice, 5 mg/kg i.v., read-out: systemic clearance) was 77.9 mL/min/kg, the half-life ([1]; male, CD-1, mouse, plasma, iv, mice, 5 mg/kg i.v., read-out: terminal half-life (t1/2) (converted)) was 8.72 h and the concentration at 0.083 h [1, 4] was 310 ng/mL. The concentration at 0.25 h [1, 4] was 78.2 ng/mL, the concentration at 0.5 h [1, 4] was 35.8 ng/mL and the concentration at 1 h [1, 4] was 22.5 ng/mL. The concentration at 2 h [1, 4] was 17.7 ng/mL, the concentration at 4 h [1, 4] was 11.5 ng/mL and the concentration at 6 h [1, 4] was 13.1 ng/mL. The concentration at 8 h [1, 4] was 11.7 ng/mL, the concentration at 24 h ([1]; male, CD-1, mouse, plasma, po, 20 mg/kg, PO, 24 hours, read-out: Plasma concentration (PO)) was 3.18 ng/mL and the half-life ([1]; male, CD-1, mouse, plasma, po, mice, 20 mg/kg p.o., read-out: t1/2 (converted)) was 8.76 h. The Cmax ([1]; male, CD-1, mouse, plasma, mice, 20 mg/kg oral, read-out: Cmax) was 294 ng/mL, the “adverse clinical signs during PK studies” value ([1]; mice, 24 hours, result in words) was “No adverse clinical signs were observed” and the IC50 (COX1/2) was over 10 µM. For the same molecule, the IC50 (INSR) was over 10 µM, the IC50 (LCK) was over 10 µM and the IC50 (PDE4) was over 10 µM. The IC50 (ROCK1) was over 10 µM, the IC50 (VEGFR2) was over 10 µM and the IC50 (hERG) was over 10 µM.
